In DBAASP:
Converted amounts (≈) assume the structure as drawn.

Tests used:
Assay in all cases: ≥ marks a high value that may be exact or a test limit, other limits are often not marked, values filed in µg/mL are converted to µM
[1] = test system: Escherichia coli ATCC 25922
[2] = test system: Staphylococcus aureus ATCC 29213
[3] = test system: Escherichia coli
[4] = test system: Pseudomonas aeruginosa ATCC 27853
[5] = test system: Staphylococcus aureus ATCC 25923

Row | MIC [1] | MIC [2] | MIC [3] | MIC [4] | MIC [5] | SMILES
1 | 5 µM (≈ 8.89 µg/mL) | 10 µM (≈ 17.8 µg/mL) |  |  |  | CC(C)C[C@H](NC(=O)[C@H](CCCCN)NC(=O)[C@H](CC(C)C)NC(=O)[C@H](CC(C)C)NC(=O)[C@H](CCCCN)NC(=O)[C@H](CCCCN)NC(=O)[C@H](CC(C)C)NC(=O)[C@H](CC(C)C)NC(=O)[C@H](CCCCN)NC(=O)[C@H](CC(C)C)NC(=O)[C@H](CC(C)C)NC(=O)[C@H](CCCCN)NC(=O)[C@H](CCCCN)NC(=O)[C@H](C)N)C(=O)N[C@@H](C)C(=O)NCC(=O)O [AKKLLKLLKKLLKLAG]
2 |  |  | 2.5 µM (≈ 7.21 µg/mL) |  |  | CC[C@H](C)[C@H](NC(=O)[C@H](Cc1c[nH]c2ccccc12)NC(=O)[C@H](CCCCN)NC(=O)[C@@H]1CCCN1C(=O)[C@H](CC(C)C)NC(=O)[C@H](CCCCN)NC(=O)CNC(=O)[C@@H](NC(=O)[C@@H](NC(=O)[C@H](CO)NC(=O)[C@@H](NC(=O)[C@@H](NC(=O)[C@H](CCCCN)NC(=O)[C@H](CCC(N)=O)NC(=O)[C@H](C)N)[C@@H](C)CC)[C@@H](C)CC)[C@@H](C)O)[C@@H](C)CC)C(=O)N[C@H](C(=O)N[C@@H](CCCCN)C(=O)N[C@H](C(=O)N[C@H](C(=O)N[C@@H](CC(N)=O)C(=O)N[C@@H](CCCCN)C(=O)N[C@@H](Cc1ccccc1)C(=O)N[C@H](C(=O)N[C@@H](CCCCN)C(=O)N[C@@H](CCCCN)C(=O)O)[C@@H](C)O)C(C)C)[C@@H](C)O)[C@@H](C)CC [AQKIISTIGKLPKWIIKTVNKFTKK]
3 | > 293 µM | > 293 µM |  |  |  | CC[C@H](C)[C@H](NC(=O)CNC(=O)[C@H](CC(C)C)NC(=O)[C@@H](NC(=O)[C@@H]1CCCN1C(=O)[C@H](CC(N)=O)NC(=O)[C@H](CC(C)C)NC(=O)[C@H](CC(C)C)NC(=O)CNC(=O)[C@H](CC(N)=O)NC(=O)[C@H](CC(C)C)NC(=O)[C@H](CC(C)C)NC(=O)[C@@H](N)CC(=O)O)C(C)C)C(=O)N[C@@H](C)C(=O)N[C@@H](CC(N)=O)C(=O)NCC(=O)N[C@@H](CC(C)C)C(=O)N[C@H](C(=O)NCC(=O)NCC(=O)N[C@@H](CC(C)C)C(=O)N[C@H](C(=O)N[C@@H](CCCCN)C(=O)N[C@@H](CCCCN)C(N)=O)C(C)C)[C@@H](C)O [DLLNGLLNPVLGIANGLTGGLVKK]
4 | 32.6 µM (≈ 50 µg/mL) |  |  | 130 µM (≈ 200 µg/mL) | 32.6 µM (≈ 50 µg/mL) | CSCC[C@H](NC(=O)[C@H](CCCN=C(N)N)NC(=O)[C@H](Cc1c[nH]c2ccccc12)NC(=O)[C@H](C)NC(=O)[C@H](Cc1c[nH]c2ccccc12)NC(=O)[C@H](CCCN=C(N)N)NC(=O)[C@H](CCCN=C(N)N)NC(=O)[C@H](C)NC(=O)[C@H](CCCCN)NC(=O)[C@@H](N)Cc1ccccc1)C(=O)N[C@@H](CCCCN)C(=O)O [FKARRWAWRMK]
5 | 10 µM (≈ 17.4 µg/mL) | > 40 µM |  |  |  | CC[C@H](C)[C@H](NC(=O)[C@H](CCCN=C(N)N)NC(=O)[C@H](CCC(N)=O)NC(=O)[C@@H](NC(=O)[C@H](Cc1cnc[nH]1)NC(=O)[C@H](CCCN=C(N)N)NC(=O)[C@H](CCCCN)NC(=O)[C@@H](N)Cc1ccccc1)C(C)C)C(=O)N[C@@H](CCCCN)C(=O)N[C@@H](CC(=O)O)C(=O)N[C@@H](Cc1ccccc1)C(=O)N[C@@H](CC(C)C)C(=O)N[C@@H](CCCN=C(N)N)C(=O)O [FKRHVQRIKDFLR]
6 | 10 µM (≈ 16.8 µg/mL) | > 40 µM |  |  |  | CC[C@H](C)[C@H](NC(=O)[C@H](CCCN=C(N)N)NC(=O)[C@H](CCC(N)=O)NC(=O)[C@@H](NC(=O)[C@@H](NC(=O)[C@H](CCCN=C(N)N)NC(=O)[C@H](CCCCN)NC(=O)[C@@H](N)Cc1ccccc1)[C@@H](C)CC)C(C)C)C(=O)N[C@@H](CCCCN)C(=O)N[C@@H](CC(=O)O)C(=O)N[C@@H](Cc1ccccc1)C(=O)N[C@@H](C)C(=O)N[C@@H](CCCN=C(N)N)C(=O)O [FKRIVQRIKDFAR]
7 | 19 µM (≈ 48.7 µg/mL) | 76 µM (≈ 195 µg/mL) |  | 19 µM (≈ 48.7 µg/mL) |  | CC[C@H](C)[C@H](NC(=O)CN)C(=O)NCC(=O)N[C@@H](CCCCN)C(=O)N[C@@H](Cc1ccccc1)C(=O)N[C@@H](CC(C)C)C(=O)N[C@@H](Cc1cnc[nH]1)C(=O)N[C@@H](CCCCN)C(=O)N[C@H](C(=O)N[C@@H](CCCCN)C(=O)N[C@@H](CO)C(=O)N[C@@H](Cc1ccccc1)C(=O)NCC(=O)N[C@@H](CCCCN)C(=O)N[C@@H](CO)C(=O)N[C@@H](Cc1c[nH]c2ccccc12)C(=O)N[C@H](C(=O)NCC(=O)N[C@@H](CCC(=O)O)C(=O)N[C@H](C(=O)N[C@@H](CCSC)C(=O)N[C@@H](CC(N)=O)C(=O)N[C@@H](CO)C(N)=O)[C@@H](C)CC)[C@@H](C)CC)C(C)C [GIGKFLHKVKSFGKSWIGEIMNS]
8 | 5 µM (≈ 10.9 µg/mL) | 20 µM (≈ 43.5 µg/mL) |  | 20 µM (≈ 43.5 µg/mL) |  | NCC(=O)N[C@@H](CCCN=C(N)N)C(=O)N[C@@H](CCCN=C(N)N)C(=O)N1CCC[C@H]1C(=O)N[C@@H](CCCN=C(N)N)C(=O)N1CCC[C@H]1C(=O)N[C@@H](CCCN=C(N)N)C(=O)N1CCC[C@H]1C(=O)N[C@@H](CCCN=C(N)N)C(=O)N1CCC[C@H]1C(=O)N[C@@H](Cc1c[nH]c2ccccc12)C(=O)N[C@@H](Cc1c[nH]c2ccccc12)C(=O)N[C@@H](Cc1c[nH]c2ccccc12)C(=O)N[C@@H](Cc1c[nH]c2ccccc12)C(=O)N[C@@H](Cc1c[nH]c2ccccc12)C(=O)O [GRRPRPRPRPWWWWW]
9 |  | > 33.6 µM |  |  |  | CC[C@H](C)[C@H](NC(=O)CNC(=O)[C@H](CCCCN)NC(=O)[C@H](CCCCN)NC(=O)[C@H](CCCCN)NC(=O)[C@@H](N)CCCCN)C(=O)NCC(=O)N[C@@H](CCCCN)C(=O)N[C@@H](Cc1ccccc1)C(=O)N[C@@H](CC(C)C)C(=O)N[C@@H](Cc1cnc[nH]1)C(=O)N[C@@H](CO)C(=O)N[C@@H](C)C(=O)N[C@@H](CCCCN)C(=O)N[C@@H](CCCCN)C(=O)N[C@@H](Cc1ccccc1)C(=O)NCC(=O)N[C@@H](CCCCN)C(=O)N[C@@H](C)C(=O)N[C@@H](Cc1ccccc1)C(=O)N[C@H](C(=O)NCC(=O)N[C@@H](CCC(=O)O)C(=O)N[C@H](C(=O)N[C@@H](CCSC)C(=O)N[C@@H](CC(N)=O)C(=O)N[C@@H](CO)C(=O)O)[C@@H](C)CC)C(C)C [KKKKGIGKFLHSAKKFGKAFVGEIMNS]
10 | > 100 µM |  |  | > 100 µM |  | CC[C@H](C)[C@H](NC(=O)[C@H](Cc1ccc(O)cc1)NC(=O)[C@H](CCC(N)=O)NC(=O)[C@H](CC(C)C)NC(=O)[C@H](C)NC(=O)[C@H](CCCCN)NC(=O)[C@H](CCCCN)NC(=O)[C@H](CCSC)NC(=O)[C@H](CCCCN)NC(=O)[C@@H](N)CCCCN)C(=O)N[C@@H](CCCCN)C(=O)N[C@@H](CC(C)C)C(N)=O [KKMKKALQYIKL]
11 | 10 µM (≈ 17 µg/mL) | 3.54 µM (≈ 6.02 µg/mL) |  |  |  | CC(=O)N[C@@H](CCCCN)C(=O)N[C@@H](CC(C)C)C(=O)N[C@@H](CC(C)C)C(=O)N[C@@H](CCCCN)C(=O)N[C@@H](CC(C)C)C(=O)N[C@@H](CC(C)C)C(=O)N[C@@H](CCCCN)C(=O)N1CCC[C@H]1C(=O)N[C@@H](CC(C)C)C(=O)N[C@@H](CC(C)C)C(=O)N[C@@H](CCCCN)C(=O)N[C@@H](CC(C)C)C(=O)N[C@@H](CC(C)C)C(=O)N[C@@H](CCCCN)C(N)=O [KLLKLLKPLLKLLK]
12 |  |  |  | > 128 µM |  | CC(C)C[C@H](NC(=O)[C@H](CC(C)C)NC(=O)[C@H](CCCN=C(N)N)NC(=O)[C@H](CC(C)C)NC(=O)[C@H](CC(C)C)NC(=O)[C@H](CCCN=C(N)N)NC(=O)[C@H](CCCN=C(N)N)NC(=O)[C@H](CC(C)C)NC(=O)[C@H](CC(C)C)NC(=O)[C@H](CCCN=C(N)N)NC(=O)[C@H](CC(C)C)NC(=O)[C@H](CC(C)C)NC(=O)[C@H](CCCN=C(N)N)NC(=O)[C@H](CC(C)C)NC(=O)[C@H](CCCN=C(N)N)NC(=O)[C@H](CC(C)C)NC(=O)[C@H](CCCN=C(N)N)NC(=O)[C@H](CCCN=C(N)N)NC(=O)[C@@H](N)CC(C)C)C(=O)O [LRRLRLRLLRLLRRLLRLL]
13 | > 100 µM |  |  | > 100 µM | > 100 µM | CC(C)[C@H](NC(=O)[C@H](CC(=O)O)NC(=O)[C@H](CO)NC(=O)[C@H](CCCCN)NC(=O)CNC(=O)[C@H](CO)NC(=O)[C@H](CO)NC(=O)[C@H](Cc1cnc[nH]1)NC(=O)[C@@H](N)CCC(N)=O)C(=O)N[C@@H](CCCN=C(N)N)C(=O)N[C@@H](CCCN=C(N)N)C(=O)N[C@@H](Cc1c[nH]c2ccccc12)C(N)=O [QHSSGKSDVRRW]
14 | 28.7 µM (≈ 32 µg/mL) | > 57.5 µM |  | 7.19 µM (≈ 8 µg/mL) |  | CC[C@H](C)[C@H](NC(=O)[C@H](CCCCN)NC(=O)[C@H](CCCCN)NC(=O)[C@@H](N)CCC(N)=O)C(=O)N[C@@H](C)C(=O)N[C@H](C(=O)N[C@@H](CCCN=C(N)N)C(=O)N[C@@H](CC(C)C)C(=O)N[C@@H](CO)C(=O)N[C@@H](C)C(=O)O)C(C)C [QKKIAVRLSA]
15 |  |  | 0.359 µM (≈ 0.699 µg/mL) |  |  | CC(C)C[C@H](NC(=O)[C@H](CCCN=C(N)N)NC(=O)CNC(=O)CNC(=O)[C@@H](N)CCCN=C(N)N)C(=O)N[C@H]1CSSC[C@@H](C(=O)N[C@H](C(=O)O)[C@@H](C)O)NC(=O)[C@H](C(C)C)NC(=O)[C@@H]2CSSC[C@H](NC(=O)[C@H](Cc3ccc(O)cc3)NC1=O)C(=O)N[C@@H](CCCN=C(N)N)C(=O)N[C@@H](CCCN=C(N)N)C(=O)N[C@@H](CCCN=C(N)N)C(=O)N[C@@H](Cc1ccccc1)C(=O)N2 [RGGRLCYCRRRFCVCT]
16 | 8.12 µM (≈ 9.99 µg/mL) |  |  | 6.09 µM (≈ 7.49 µg/mL) | 2.03 µM (≈ 2.5 µg/mL) | NC(=O)[C@H](CCCN=C(N)N)NC(=O)[C@H](Cc1c[nH]c2ccccc12)NC(=O)[C@H](Cc1c[nH]c2ccccc12)NC(=O)[C@H](CCCN=C(N)N)NC(=O)[C@H](Cc1c[nH]c2ccccc12)NC(=O)[C@H](Cc1c[nH]c2ccccc12)NC(=O)[C@@H](N)CCCN=C(N)N [RWWRWWR]

Row | SMILES | MIC [1] | MIC [2] | MIC [3] | MIC [4] | MIC [5]
17 | CC[C@H](C)[C@H](NC(=O)[C@@H](N)Cc1ccc(O)cc1)C(=O)N[C@@H](CCCCN)C(=O)N[C@@H](CC(C)C)C(=O)N[C@@H](CC(C)C)C(=O)N[C@@H](CCCCN)C(=O)N[C@@H](CCC(=O)O)C(N)=O [YIKLLKE] | > 100 µM |  |  | > 100 µM | 
